Earlier results on 1 compound are cited in patent US12121516B2, “Pharmaceutical composition comprising selexipag” (ACTELION PHARMACEUTICALS LTD, priority 2017, dated 2024).

Structures are written as SMILES.

In data set [1] the test system is patients with pulmonary arterial hypertension. The conditions noted are these: phase III, versus placebo.
For data set [2], the system named is healthy subjects. The conditions noted are these: administered orally or by i.v. infusion.

For `CC(C)N(CCCCOCC(=O)NS(C)(=O)=O)c1cnc(-c2ccccc2)c(-c2ccccc2)n1` [selexipag, 2-{4-[N-(5,6-diphenylpyrazin-2-yl)-N-isopropylamino]butyloxy}-N-(methylsulfonyl)acetamide], in data set [1], the “risk of the primary composite end point of death or a complication related to pulmonary arterial hypertension” value is given as “significantly lower”. Besides, the tolerability entry in data set [2] is recorded as “generally well tolerated”.
